In patent US10183914B2 (BAYER CROPSCIENCE AKTIENGESELLSCHAFT, priority 2014, dated 2019):

What was measured:
[1] = logp (HCOOH), physicochemical characterization
[2] = tested on: Veronica persica; assay: Pre-emergence herbicidal effect; assay type: in vivo; details: 3 weeks
Procedure, shortened: (§1)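 Seeds sown in sandy loam in wood-fiber pots and covered with soil; compounds formulated as WP or EC applied to the soil surface as aqueous suspension or emulsion at 600 to 800 L/ha water with 0.2% wetting agent. Greenhouse growth; visual damage scored after 3 weeks versus untreated controls (0–100%).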

[3] = tested on: Stellaria media; assay: Pre-emergence herbicidal effect; assay type: in vivo; details: 3 weeks
Procedure, shortened: as §1

[4] = tested on: Alopecurus myosuroides; assay: Pre-emergence herbicidal effect; assay type: in vivo; details: 3 weeks
Procedure, shortened: as §1

[5] = tested on: Echinochloa crus-galli; assay: Pre-emergence herbicidal effect; assay type: in vivo; details: 3 weeks
Procedure, shortened: as §1

[6] = tested on: Viola tricolor; assay: Pre-emergence herbicidal effect; assay type: in vivo; details: 3 weeks
Procedure, shortened: as §1

[7] = tested on: Setaria viridis; assay: Pre-emergence herbicidal effect; assay type: in vivo; details: 3 weeks
Procedure, shortened: as §1

[8] = tested on: Cyperus esculentus; assay: Pre-emergence herbicidal effect; assay type: in vivo; details: 3 weeks
Procedure, shortened: as §1

[9] = tested on: Lolium multiflorum; assay: Pre-emergence herbicidal effect; assay type: in vivo; details: 3 weeks
Procedure, shortened: as §1

[10] = tested on: Matricaria inodora; assay: Pre-emergence herbicidal effect; assay type: in vivo; details: 3 weeks
Procedure, shortened: as §1

[11] = tested on: Amaranthus retroflexus; assay: Pre-emergence herbicidal effect; assay type: in vivo; details: 3 weeks
Procedure, shortened: as §1

[12] = tested on: Polygonum convolvulus; assay: Pre-emergence herbicidal effect; assay type: in vivo; details: 3 weeks
Procedure, shortened: as §1

[13] = tested on: Zea mays; assay: Pre-emergence herbicidal effect and crop plant compatibility; assay type: in vivo; details: 3 weeks
Procedure, shortened: as §1

[14] = tested on: Triticum aestivum (spring); assay: as above; assay type: in vivo; details: 80 g/ha, 3 weeks
Procedure, shortened: as §1

[15] = tested on: Oryza sativa; assay: Post-emergence herbicidal effect and crop plant compatibility; assay type: in vivo; details: visual scoring after about 3 weeks
Procedure, shortened: (§2)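 Test species, both weeds and crops, are raised in sandy loam and treated post-emergence at one leaf. Compounds in WP or EC form are applied with 0.2% wetting agent at 600 to 800 L/ha. Percent herbicidal action against untreated plants is judged by eye about 3 weeks on.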

[16] = tested on: Zea mays; assay: as above; assay type: in vivo; details: visual scoring after about 3 weeks
Procedure, shortened: as §2

[17] = tested on: Triticum aestivum (spring); assay: as above; assay type: in vivo; details: visual scoring after about 3 weeks
Procedure, shortened: as §2

[18] = tested on: Alopecurus myosuroides; assay: Post-emergence herbicidal effect; assay type: in vivo; details: 320 g/ha, visual scoring after about 3 weeks
Procedure, shortened: as §2

[19] = tested on: Echinochloa crus-galli; assay: Post-emergence herbicidal effect; assay type: in vivo; details: visual scoring after about 3 weeks
Procedure, shortened: as §2

[20] = tested on: Setaria viridis; assay: Post-emergence herbicidal effect; assay type: in vivo; details: 320 g/ha (dose by row order of upper half), scoring after about 3 weeks
Procedure, shortened: as §2

[21] = tested on: Avena fatua; assay: Post-emergence herbicidal effect; assay type: in vivo; details: 320 g/ha, visual scoring after about 3 weeks
Procedure, shortened: as §2

[22] = tested on: Lolium multiflorum; assay: Post-emergence herbicidal effect; assay type: in vivo; details: visual scoring after about 3 weeks
Procedure, shortened: as §2

[23] = tested on: Ipomoea purpurea; assay: Post-emergence herbicidal effect; assay type: in vivo; details: scoring after about 3 weeks
Procedure, shortened: as §2

[24] = tested on: Abutilon theophrasti; assay: Pre-emergence herbicidal effect; assay type: in vivo; details: 320 g/ha, 3 weeks
Procedure, shortened: as §1

[25] = tested on: Avena fatua; assay: Pre-emergence herbicidal effect; assay type: in vivo; details: 320 g/ha, 3 weeks
Procedure, shortened: as §1

| SMILES | logp (HCOOH) [1] | VERPE herbicidal activity in percent ([2]; 80 g/ha) [%] | VERPE herbicidal activity in percent ([2]; 320 g/ha) [%] | STEME herbicidal activity in percent ([3]; 80 g/ha) [%] | STEME herbicidal activity in percent ([3]; 320 g/ha) [%] | ALOMY herbicidal activity in percent ([4]; 80 g/ha) [%] | ALOMY herbicidal activity in percent ([4]; 320 g/ha) [%] | ECHCG herbicidal activity in percent ([5]; 80 g/ha) [%] | ECHCG herbicidal activity in percent ([5]; 320 g/ha) [%] | VIOTR herbicidal activity in percent ([6]; 80 g/ha) [%] | VIOTR herbicidal activity in percent ([6]; 320 g/ha) [%] | SETVI herbicidal activity in percent ([7]; 80 g/ha) [%] | SETVI herbicidal activity in percent ([7]; 320 g/ha) [%] | CYPES herbicidal activity in percent ([8]; 320 g/ha) [%] | LOLMU herbicidal activity in percent ([9]; 80 g/ha) [%] | LOLMU herbicidal activity in percent ([9]; 320 g/ha) [%] | MATIN herbicidal activity in percent ([10]; 80 g/ha) [%] | MATIN herbicidal activity in percent ([10]; 320 g/ha) [%] | AMARE herbicidal activity in percent ([11]; 80 g/ha) [%] | AMARE herbicidal activity in percent ([11]; 320 g/ha) [%] | also measured |
| --- | --- | --- | --- | --- | --- | --- | --- | --- | --- | --- | --- | --- | --- | --- | --- | --- | --- | --- | --- | --- | --- |
| CC(=O)c1cnc(N[C@H]2c3cc(C)ccc3C[C@@H]2C)nc1C [1.26] | solid; logp (HCOOH): 3.56; 1H-NMR (CDCl3, 400 MHZ, δ in ppm): 1.20 (d, 3H, | 100 | 100 | 100 | 100 | 90 | 90 | 100 | 100 | 100 | 100 | 100 | 100 | 80 | 80 | 100 | 100 | 100 | 100 | 100 | CYPES herbicidal activity in percent ([8]; 80 g/ha): 80%; POLCO herbicidal activity in percent ([12]; 80 g/ha): 100%; POLCO herbicidal activity in percent ([12]; 320 g/ha): 100%; ZEAMX herbicidal activity in percent ([13]; 80 g/ha): 0%; ZEAMX herbicidal activity in percent ([13]; 320 g/ha): 0%; TRZAS herbicidal activity in percent [14]: 0%; post-emergence efficacy ORYSA ([15]; 80 g/ha): 0%; post-emergence efficacy ORYSA ([15]; 320 g/ha): 0%; post-emergence efficacy ZEAMX ([16]; 80 g/ha): 0%; post-emergence efficacy ZEAMX ([16]; 320 g/ha): 0%; post-emergence efficacy TRZAS ([17]; 80 g/ha): 0%; post-emergence efficacy ALOMY [18]: 90%; post-emergence efficacy ECHCG ([19]; 80 g/ha): 90%; post-emergence efficacy ECHCG ([19]; 320 g/ha): 100%; post-emergence efficacy SETVI [20]: 90%; post-emergence efficacy AVEFA [21]: 80%; post-emergence efficacy LOLMU ([22]; 320 g/ha): 80%; post-emergence efficacy PHBPU ([23]; 320 g/ha (dose by row order of upper half)): 90% |
| Cc1ccc2c(c1)[C@H](Nc1ncc3c(n1)CCCC3=O)[C@@H](C)C2 [2.43] | solid; logp (HCOOH): 3.45; 1H-NMR (CDCl3, 400 MHZ, δ in ppm): 1.25 (t, 3H, CH3); | 100 | 100 | 100 | 100 | 100 | 100 | 100 | 100 | 100 | 100 | 90 | 100 | 80 | 100 | 100 | 100 | 100 | 100 | 100 | ABUTH herbicidal activity in percent [24]: 100%; AVEFA herbicidal activity in percent [25]: 100%; POLCO herbicidal activity in percent ([12]; 80 g/ha): 100%; POLCO herbicidal activity in percent ([12]; 320 g/ha): 100%; ZEAMX herbicidal activity in percent ([13]; 80 g/ha): 20%; TRZAS herbicidal activity in percent [14]: 0%; post-emergence efficacy ORYSA ([15]; 80 g/ha): 10%; post-emergence efficacy ZEAMX ([16]; 80 g/ha): 0%; post-emergence efficacy TRZAS ([17]; 80 g/ha): 10%; post-emergence efficacy TRZAS ([17]; 320 g/ha): 10%; post-emergence efficacy ECHCG ([19]; 80 g/ha): 90%; post-emergence efficacy ECHCG ([19]; 320 g/ha): 90%; post-emergence efficacy SETVI [20]: 80%; post-emergence efficacy AVEFA [21]: 100%; post-emergence efficacy LOLMU ([22]; 80 g/ha): 80%; post-emergence efficacy LOLMU ([22]; 320 g/ha): 100%; post-emergence efficacy PHBPU ([23]; 80 g/ha (dose by row order of upper half)): 80% |
